These results are taken from ChEMBL document CHEMBL5729675, “Sulfonamide compound or salt thereof” (2023).

Each structure is given as a SMILES string. pIC50: −log10 of the molar value.

Sequence of Ribonucleotide reductase (P23921 whole entry, looked up): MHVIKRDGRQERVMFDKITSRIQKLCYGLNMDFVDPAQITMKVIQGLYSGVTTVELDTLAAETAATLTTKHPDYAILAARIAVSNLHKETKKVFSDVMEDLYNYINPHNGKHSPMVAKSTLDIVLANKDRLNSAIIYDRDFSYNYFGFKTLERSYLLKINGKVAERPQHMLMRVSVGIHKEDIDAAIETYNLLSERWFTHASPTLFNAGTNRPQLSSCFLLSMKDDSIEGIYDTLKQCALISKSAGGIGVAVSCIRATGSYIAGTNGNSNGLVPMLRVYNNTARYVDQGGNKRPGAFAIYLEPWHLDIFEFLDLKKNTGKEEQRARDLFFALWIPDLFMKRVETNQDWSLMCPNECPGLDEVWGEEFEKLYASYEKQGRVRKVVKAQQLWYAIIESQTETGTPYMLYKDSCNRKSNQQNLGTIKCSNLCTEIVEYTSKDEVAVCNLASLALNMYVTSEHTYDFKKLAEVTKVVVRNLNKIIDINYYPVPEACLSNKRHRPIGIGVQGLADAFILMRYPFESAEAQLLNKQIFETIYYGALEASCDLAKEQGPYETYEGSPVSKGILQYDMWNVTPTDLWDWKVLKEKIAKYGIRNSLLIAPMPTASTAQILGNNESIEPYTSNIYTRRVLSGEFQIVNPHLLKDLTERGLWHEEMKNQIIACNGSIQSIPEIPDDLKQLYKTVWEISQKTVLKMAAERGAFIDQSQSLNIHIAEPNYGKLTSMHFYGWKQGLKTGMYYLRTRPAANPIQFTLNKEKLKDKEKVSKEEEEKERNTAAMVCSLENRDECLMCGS
Sequence of Ribonucleotide reductase (Q7LG56 whole entry, looked up): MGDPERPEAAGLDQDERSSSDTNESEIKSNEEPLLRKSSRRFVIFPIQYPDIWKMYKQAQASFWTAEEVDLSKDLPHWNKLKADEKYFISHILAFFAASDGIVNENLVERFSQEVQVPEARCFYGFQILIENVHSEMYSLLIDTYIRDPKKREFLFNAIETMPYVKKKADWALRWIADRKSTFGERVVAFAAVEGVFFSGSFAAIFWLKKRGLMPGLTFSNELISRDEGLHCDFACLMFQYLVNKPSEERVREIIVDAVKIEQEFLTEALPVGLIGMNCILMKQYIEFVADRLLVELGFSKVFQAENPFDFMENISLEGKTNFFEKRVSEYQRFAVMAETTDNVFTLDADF

The test has as its target Ribonucleotide reductase (Homo sapiens, UniProt P23921+Q7LG56). The test can be described thus: Human RNR Inhibition Effect: The inhibitory activity against the ribonucleotide reduction reaction (hereinafter referred to as RNR reaction) of the test compound was determined by measuring the formation of deoxycytidine diphosphate (hereinafter referred to as dCDP) from cytidine diphosphate (hereinafter referred to as CDP) by the following method.Human M1 subunit and human M2 subunit (mutant ….
By pIC50 is commonly meant the IC50 on a negative log10 scale, so that one unit is a factor of ten. The compound `Cc1ccc(F)c([C@@H](C)[C@H](NS(=O)(=O)c2ccc([N+](=O)[O-])cc2)c2n[nH]c(=O)o2)c1C` gave a pIC50 of 6.57.

Turning to `Cc1ccc(F)c([C@@H](C)[C@H](NS(=O)(=O)c2ccc(Cl)c(-c3cnn(C)c3)c2)c2n[nH]c(=O)o2)c1C`, the pIC50 is 6.66.

Regarding `COc1cc(Cl)ccc1S(=O)(=O)N[C@H](c1n[nH]c(=O)o1)[C@H](C)c1c(F)ccc(-c2ccc(Cl)nc2)c1C`, the pIC50 is 6.47.

For the compound `COc1cc(Cl)ccc1S(=O)(=O)N[C@H](c1n[nH]c(=O)o1)[C@H](C)c1c(F)ccc(-c2cnn(C(F)F)c2)c1C`, the pIC50 is 6.80. Compared with the last compound, the pIC50 is 0.33 log units higher.

As for `COC(=O)c1cc(S(=O)(=O)N[C@H](c2n[nH]c(=S)o2)[C@H](C)c2cccc3c2CCC3)ccc1Cl`, the pIC50 is 6.08. This pIC50 lies 0.72 log units lower than the previous one.

The compound `COc1ccc(-c2ccc(F)c([C@@H](C)[C@H](NS(=O)(=O)c3ccc(Cl)cc3OC)c3n[nH]c(=O)o3)c2C)cc1` gave a negative-log IC50 (pIC50) of 6.52.

`COc1cc(Cl)ccc1S(=O)(=O)N[C@H](c1n[nH]c(=O)o1)[C@H](C)c1c(F)ccc(-c2ccc(Cl)cc2)c1C` showed a pIC50 of 6.31.

For `COc1cc(Cl)ccc1S(=O)(=O)N[C@H](c1n[nH]c(=O)o1)[C@H](C)c1c(F)ccc(-c2cnn(C3CCC3)c2)c1C`, the pIC50 was 6.66. Against the preceding compound, the pIC50 is 0.35 log units higher.

For the compound `Cc1ccc(F)c([C@@H](C)[C@H](NS(=O)(=O)c2ccc(Cl)cc2C(=O)NO)c2n[nH]c(=O)o2)c1C`, the pIC50 was 7.15.

The compound `COc1cc(Cl)ccc1S(=O)(=O)N[C@H](c1n[nH]c(=O)o1)[C@H](C)c1c(F)ccc(-c2cc(F)cc(F)c2)c1C` gave a pIC50 of 6.03.

For the compound `Cc1ccc(F)c([C@@H](C)[C@H](NS(=O)(=O)c2cccc3c2OCCN3)c2n[nH]c(=O)o2)c1C`, the pIC50 is 6.38.

For the compound `COc1cc(Cl)ccc1S(=O)(=O)N[C@H](c1n[nH]c(=O)o1)[C@H](C)c1c(F)ccc(-c2cncc(C(=O)N3CCOCC3)c2)c1C`, the pIC50 is 6.38.

On to `COc1ccc(-c2cc(S(=O)(=O)N[C@H](c3n[nH]c(=O)o3)[C@H](C)c3c(F)ccc(C)c3C)ccc2Cl)cc1`, for which the pIC50 is 6.14.

Turning to `COc1cc(Cl)ccc1S(=O)(=O)N[C@H](c1n[nH]c(=O)o1)[C@H](C)c1c(F)ccc(-c2cc[nH]n2)c1C`, the pIC50 is 6.54.

Turning to `Cc1c(Br)ccc(F)c1[C@@H](C)[C@H](NS(=O)(=O)c1ccc(Cl)c2c1OCCC2(C)N)c1n[nH]c(=O)o1` (stereo not given in full), the pIC50 is 7.22.

`Cc1ccc(F)c([C@@H](C)[C@H](NS(=O)(=O)c2cccc3c2CCNC3)c2n[nH]c(=O)o2)c1C` had a pIC50 of 6.12.

`COc1cc(Cl)ccc1S(=O)(=O)N[C@H](c1n[nH]c(=O)o1)[C@H](C)c1c(F)ccc(-c2cnn(C)c2)c1C` gave a pIC50 of 7.05.

Compound `Cc1ccc(F)c([C@@H](C)[C@H](NS(=O)(=O)c2ccc(Cl)c3c2OCCC3N)c2n[nH]c(=O)o2)c1C` (stereo not given in full) showed a pIC50 of 6.89.

Turning to `COc1cc(Cl)ccc1S(=O)(=O)N[C@H](c1n[nH]c(=O)o1)[C@H](C)c1c(F)ccc(-c2cn(C)nc2C)c1C`, the pIC50 was 6.55.

`Cc1ccc(F)c([C@@H](C)[C@H](NS(=O)(=O)c2ccc(Cl)c3c2OCC(=O)N3CCO)c2n[nH]c(=O)o2)c1C` gave a pIC50 of 6.89.

Compound `COc1cc(Cl)ccc1S(=O)(=O)N[C@H](c1n[nH]c(=O)o1)[C@H](C)c1c(F)ccc(-c2cnc3c(c2)OCCN3C)c1C` gave a pIC50 of 6.66.

In turn, `Cc1ccc(F)c([C@@H](C)[C@H](NS(=O)(=O)c2ccc(Cl)cc2C(=O)NOCc2ccccc2)c2n[nH]c(=O)o2)c1C` gave a pIC50 of 6.04.

Take `Cc1c(-c2cnn(C)c2)ccc(F)c1[C@@H](C)[C@H](NS(=O)(=O)c1ccc(Cl)cc1C(N)=O)c1n[nH]c(=O)o1`: the pIC50 is 6.77.

For the compound `COc1cc(N)ccc1S(=O)(=O)N[C@H](c1n[nH]c(=O)o1)[C@H](C)c1cccc2c1CCC2`, the pIC50 is 6.14.

`COc1cc(C#N)ccc1S(=O)(=O)N[C@H](c1n[nH]c(=O)o1)[C@H](C)c1c(F)ccc(C)c1C` showed a pIC50 of 7.05.

`C[C@H](c1c(F)ccc2ccccc12)[C@H](NS(=O)(=O)c1ccc(Cl)c2c1OCCC2F)c1n[nH]c(=O)o1` (stereo not given in full) showed a pIC50 of 6.80. This pIC50 is 0.25 log units lower than that of the compound before.

Take `CNC(=O)c1cc(Cl)ccc1S(=O)(=O)N[C@H](c1n[nH]c(=O)o1)[C@H](C)c1c(F)ccc(C)c1C`: the pIC50 was 6.43.

Turning to `COc1cc(Cl)ccc1S(=O)(=O)N[C@H](c1n[nH]c(=O)o1)[C@H](C)c1c(F)ccc(-c2c[nH]nc2C)c1C`, the pIC50 is 6.74.

For `Cc1ccc(F)c([C@@H](C)[C@H](NS(=O)(=O)c2ccc(C#N)cc2)c2n[nH]c(=O)o2)c1C`, the pIC50 is 6.39.

With `COc1cc(Cl)ccc1S(=O)(=O)N[C@H](c1n[nH]c(=O)o1)[C@H](C)c1c(F)ccc(-c2ccc(N3CCCCC3)nc2)c1C`, the pIC50 is 6.22.

With `Cc1ccc(F)c([C@@H](C)[C@H](NS(=O)(=O)c2ccc(Cl)cc2N)c2n[nH]c(=O)o2)c1C`, the pIC50 is 6.64.

`Cc1ccc(F)c([C@@H](C)[C@H](NS(=O)(=O)c2ccc(Br)cc2C(N)=O)c2n[nH]c(=S)o2)c1C`: the pIC50 was 6.89.

For `Cc1ccc(F)c([C@@H](C)[C@H](NS(=O)(=O)c2ccc(Cl)c3c2OCCN3)c2n[nH]c(=O)o2)c1C`, the pIC50 is 7.00.

Turning to `COc1c(S(=O)(=O)N[C@H](c2n[nH]c(=O)o2)[C@H](C)c2c(F)ccc(C)c2C)ccc(Cl)c1C(C)=O`, the pIC50 was 6.96.

`Cc1ccc(F)c([C@@H](C)[C@H](NS(=O)(=O)c2ccc(Br)c(C#N)c2)c2n[nH]c(=O)o2)c1C` showed a negative-log IC50 (pIC50) of 6.19.

`COc1ccc(-c2ccc(F)c([C@@H](C)[C@H](NS(=O)(=O)c3ccc(Cl)cc3OC)c3n[nH]c(=O)o3)c2C)cn1`: the pIC50 was 6.59. Against the preceding compound, the pIC50 is 0.40 log units higher.

The compound `COc1cc(Cl)ccc1S(=O)(=O)N[C@H](c1n[nH]c(=O)o1)[C@H](C)c1c(F)ccc(-c2cn[nH]c2)c1C` showed a pIC50 of 6.80.

The compound `COc1cc(N)ccc1S(=O)(=O)N[C@H](c1n[nH]c(=O)o1)[C@H](C)c1cccc2cccc(C)c12` gave a pIC50 of 6.29.

`COc1cc(Cl)ccc1S(=O)(=O)N[C@H](c1noc(=O)[nH]1)[C@H](C)c1c(F)ccc(C)c1C` showed a pIC50 of 6.60.

`COc1cc(Cl)ccc1S(=O)(=O)N[C@H](c1n[nH]c(=O)o1)[C@H](C)c1c(F)ccc(-c2ccc(N3CCOCC3)nc2)c1C` had a pIC50 of 6.72.

For the compound `COc1cc(Cl)ccc1S(=O)(=O)N[C@H](c1n[nH]c(=S)[nH]1)[C@H](C)c1c(F)ccc(C)c1C`, the pIC50 was 6.34.

Regarding `Cc1ccc(F)c([C@@H](C)[C@H](NS(=O)(=O)c2ccc(Cl)cc2C(N)=S)c2n[nH]c(=O)o2)c1C`, the pIC50 is 7.30. This pIC50 lies 0.96 log units higher than the previous one.

Compound `CCn1cc(-c2ccc(F)c([C@@H](C)[C@H](NS(=O)(=O)c3ccc(Cl)cc3OC)c3n[nH]c(=O)o3)c2C)cn1` showed a pIC50 of 6.77.

In turn, `Cc1ccc(F)c([C@@H](C)[C@@H](c2n[nH]c(=O)o2)N(C)S(=O)(=O)c2ccc(Cl)cc2C(N)=O)c1C` gave a pIC50 of 7.10.

`COc1cc(Cl)ccc1S(=O)(=O)N[C@H](c1n[nH]c(=O)o1)[C@H](C)c1c(F)ccc(-c2cccnc2)c1C`: the pIC50 is 6.47.

As to `CC(=O)Nc1cc(Cl)ccc1S(=O)(=O)N[C@H](c1n[nH]c(=O)o1)[C@H](C)c1c(F)ccc(C)c1C`, the pIC50 was 6.36.

Take `COC(=O)c1cc(Cl)c(N)cc1S(=O)(=O)N[C@H](c1n[nH]c(=O)o1)[C@H](C)c1c(F)ccc(C)c1C`: the pIC50 was 6.18.

With `COC(=O)c1c(Cl)ccc(S(=O)(=O)N[C@H](c2n[nH]c(=S)o2)[C@H](C)c2cccc3c2CCC3)c1Cl`, the pIC50 is 6.51. Against the preceding compound, the pIC50 is 0.33 log units higher.

Turning to `COc1ncc(-c2ccc(F)c([C@@H](C)[C@H](NS(=O)(=O)c3ccc(Cl)cc3OC)c3n[nH]c(=O)o3)c2C)cn1`, the pIC50 was 6.55.

In the case of `Cc1ccc(F)c([C@@H](C)[C@H](NS(=O)(=O)c2ccccc2C(=O)NO)c2n[nH]c(=O)o2)c1C`, the pIC50 is 6.51.

`Cc1cccc([C@@H](C)[C@H](NS(=O)(=O)c2ccc(Cl)c3c2OCC=C3)c2n[nH]c(=O)o2)c1C` gave a pIC50 of 6.10.

In the case of `Cc1ccc(F)c([C@@H](C)[C@H](NS(=O)(=O)c2ccc(Br)cc2OC(F)(F)F)c2n[nH]c(=O)o2)c1C`, the pIC50 was 7.00.

In the case of `COc1ccccc1-c1ccc(C(N)=O)c(S(=O)(=O)N[C@H](c2n[nH]c(=O)o2)[C@H](C)c2c(F)ccc(C)c2C)c1`, the pIC50 was 6.60.

Turning to `COc1cc(Cl)ccc1S(=O)(=O)N[C@H](c1n[nH]c(=O)o1)[C@H](C)c1c(F)ccc(-c2cnn(C3CC3)c2)c1C`, the pIC50 was 6.66.

The compound `COc1cc(Cl)ccc1S(=O)(=O)N[C@H](c1n[nH]c(=O)o1)[C@H](C)c1c(F)ccc(-c2cncnc2)c1C` had a pIC50 of 6.27.

`Cc1ccc(F)c([C@@H](C)[C@H](NS(=O)(=O)c2cc(-c3nnco3)ccc2C(N)=O)c2n[nH]c(=O)o2)c1C` gave a pIC50 of 7.05.

Compound `Cc1ccc(F)c([C@@H](C)[C@H](NS(=O)(=O)c2ccc(Cl)c(C(=O)N3CCC(N)C3)n2)c2n[nH]c(=O)o2)c1C` (stereo not given in full) had a pIC50 of 6.82.

On to `CC(=O)N1CCOc2c(S(=O)(=O)N[C@H](c3n[nH]c(=O)o3)[C@H](C)c3cccc(C)c3C)ccc(Cl)c21`, for which the pIC50 was 6.25.

As for `Cc1c(Cl)ccc(F)c1[C@@H](C)[C@H](NS(=O)(=O)c1ccc(Cl)c2c1OCCN2C)c1n[nH]c(=O)o1`, the pIC50 was 6.89.

With `COc1cc(C(N)=O)ccc1S(=O)(=O)N[C@H](c1n[nH]c(=O)o1)[C@H](C)c1c(F)ccc(C)c1C`, the pIC50 was 6.38.
